Reference: US11932850B2, “Cancer chemoprevention with STAT3 blockers” (Jill M. Siegfried, LLC, priority 2018, dated 2024)

Assays:
[1] = system: c-Myc mRNA in H1975 cells; assay: RT-qPCR of c-Myc mRNA after EGF, H1975; assay type: cell-based, human; settings: single transfection, EGF 10 ng/ml 1.5 hr
H1975 cells = assay: Soft agar colony forming assay, H1975; assay type: cell-based, human
From the text: 1 hr after treatment with EGF.
Following the transfection protocol described above, cells transfected with either CS3D or CS3M were detached from the plate using Trypsin-EDTA (Life Technologies) and seeded at a density of 2×10^4 cells/well (in a 6-well plate) in soft agar to determine the ability of cells to grow in an anchorage-independent setting. Sea Plaque Agarose (Lonza—Rockland, Maine) was used to prepare 0.8% base agarose layer and a 0.48% upper agarose layer containing the transfected cells. 1 ml of appropriate growth media was added into each well and incubated at growth conditions of 37° C. with 5% CO2. Media was replaced every 3-4 days and colony formation was monitored. After 15-20 days, the media was aspirated, and wells were incubated with crystal violet in 10% formalin for 1 h. Using a dissecting scope, colonies were photographed in a 6-well plate (with 4 quadrants/well) using ImageJ software analysis to automatically count colonies, using 35 pixels as a cut-off.

201T xenografts = assay: 201T NSCLC xenograft tumor growth; assay type: in vivo, nude mice
Procedure: Based on the in vitro effects of CS3D, antitumor effects were evaluated in mice harboring established NSCLC xenografts (10 tumors/group). When tumors reached 200 mm3, mice were given daily intravenous injections (tail vein) of CS3D or CS3M (5 mg/kg/d), 5 days per week, and tumor growth was monitored for 14-20 days. CS3D caused a significant and robust tumor growth inhibition in 201T- and H1975-derived xenografts compared to treatment with CS3M.
FIGS. 7A and 7B show CS3D suppresses NSCLC xenograft tumor growth. Intravenous delivery of CS3D inhibits tumor growth in both wild-type (FIG. 7A, 201T) and mutant EGFR T790M (FIG. 7B, H1975) xenografts. Approximately 1×10^6 cells were inoculated subcutaneously in the flanks of nude mice. Following the development of palpable tumors (about […]), mice were randomized and given daily injections of either CS3D or CS3M (5 mg/kg/day; 10 tumors/group). Experiments were done twice as biological replicates. Tumor volumes were recorded every other day while animal weights were also monitored during the course of the treatment. […]
All studies were approved by the University of Minnesota Institutional Animal Care and Use Committee and were carried out in accordance with institutional guidelines for animal care. […] Volumes were calculated from the formula V=(Length×Width^2)/2. […]

NNK-induced lung tumors = assay: NNK lung cancer chemoprevention pilot experiment; assay type: in vivo; settings: 5 mg/kg IV 5 days a wk for 18 wks
Procedure: In a pilot experiment, 6 FVB/N mice were given 24 mg NNK (3 mg by ip injection, twice a wk×4 wks), followed by 6 wks rest, then IV treatment of 3 mice with either 5 mg/kg CS3D or CS3M 5 days a wk for 18 wks. […] With CS3M, lungs were filled with multiple invasive adenocarcinomas, while in mice receiving CS3D, tumor burden was reduced over 80%. H&E (hematoxylin and eosin) sections were taken of murine lungs exposed to NNK followed by treatment with CS3M or CS3D for 18 wks. Invasive carcinomas were prominent with CS3M and lacking with CS3D.

CS3D (DNA GATTTACGGGAAATGCSCATTTCCC; cyclic decoy with two hexaethylene glycol linkers, further chemistry not given here)
inhibition in mRNA level of c-Myc [1]: 25-30%
disruption of anchorage-independent growth (H1975 cells; 300 nM single transfection, at 15 days, H1975, compared to CS3M): 70%
reduction of colony formation in soft agar (H1975 cells; one transfection, H1975 (FIG. 4A)): 65%
reduction in tumor growth (tumor volume) (201T xenografts; 201T xenograft, 5 mg/kg/d iv, 5 days per week, compared to CS3M): 96.5%
tumor growth inhibition at 14 days (201T xenografts; both KRAS WT cell lines (201T and H1975), as reported (Njatcha et al 2017)): over 85%
toxic effects (NNK-induced lung tumors): no discernable toxic effects
reduction of tumor burden (NNK-induced lung tumors; 24 mg NNK, 6 wks rest, vs CS3M): over 80%
